Where two headings read alike, the source gives them in different places. Marks after values point to notes of the source that are not given here.
Tests used:
[1] = tested on: Calu-3 cells; assay: Cell growth inhibition assay (MTT); type: cell-based; settings: Homo sapiens, read-out: IC50 cell viability
Method: (§1) Human NSCLC cells NCI-H1975, HCC827, Calu-3 and A549were obtained from the Cell Culture Center of the Institute of Basic Medical Sciences, Chinese Academy of Medical Sciences. NCI-H1781 cell line was purchased from Cobioer Biosciences Co., Ltd. With the exception of Calu-3, all cell lines were cultured in RPMI-1640 medium (Gibco, USA) supplemented with 10% fetal bovine serum (FBS) (Gibco, USA). Calu-3 was maintained in Minimum Essential Medium (MEM) supplemented with 10% FBS (Gibco, USA), 5% 100 mM Sodium Pyruvate (Gibco, USA), and 5% Non-Essential Amino Acids Solution (NEAA; Gibco, USA). All cells were incubated at 37 °C with 5% CO2 in air.
(§2) According to the previous report, 5 × 10^3 cells/100 μL were seeded in culture medium in every well in a 96-well plate for 24 hours. […] After 72 h of treatment, MTT (Beyotime Biotechnology, China) was added at a final concentration of […] and incubated for 3 hours. Following that, DMSO was used to dissolve the formazan product and the Molecular Devices SpectraMax M5 microplate reader (Molecular Devices, USA) was used to measure absorbance at 570 nm and IC50 was calculated.

[2] = tested on: NCI-H1975 cells; assay: Cell growth inhibition assay (MTT); type: cell-based; settings: Homo sapiens, read-out: IC50 cell viability
Method: as §1, §2

[3] = tested on: NCI-H1781 cells; assay: Cell growth inhibition assay (MTT); type: cell-based; settings: Homo sapiens, read-out: IC50 cell viability
Method: as §1, §2

[4] = tested on: HCC827 xenograft; assay: Nude mouse xenograft model; settings: for number of p-EGFR and Ki67 positive cells in tumor tissues: HCC827 xenograft model, IHC, vs control group
Method: (§4) HCC827, NCI-H1975, and Calu-3 cells were resuspended in serum-free culture medium and mixed in a 1:1 ratio with Matrigel (BD Biosciences, USA) before subcutaneous injection at the right scapula of each animal (4 × 10^6 cells/mouse). The mice were randomized into groups when the average tumor volume reached 100–200 mm^3. […] The inhibition rate (IR) of tumor growth was calculated using the following equation: IR (%) = (A − B)/A × 100, where A and B are the mean tumor weights of the vehicle control and treatment groups, respectively.

[5] = tested on: NCI-H1975 xenograft; assay: Nude mouse xenograft model; settings: for Body weight (g) Begin / IR (%) inhibition rate of tumor growth (tumor weight) / Body weight (g) End: NCI-H1975 xenograft; for IR (%) inhibition rate of tumor growth (tumor weight): 15 days; for number of p-EGFR and Ki67 positive cells in tumor tissues: NCI-H1975 xenograft model, IHC
Method: as §4

[6] = tested on: A549 cells; assay: Cell growth inhibition assay (MTT); type: cell-based, Human; settings: for IC50: Homo sapiens, read-out: IC50 cell viability
Method: as §1, §2

[7] = tested on: HCC827 cells; assay: Western blot assay; type: cell-based, Human; settings: 24 h; for Phosphorylation of EGFR and its downstream AKT and ERK: Western blotting
Method: (§3) The BCA reagent kit (Beyotime Biotechnology) was used to measure protein content. The cell extracts (50 μg protein) were loaded onto a 4–20% ExpressPlus™ PAGE pre-cast gel (GenScript, China) for electrophoresis before transferring to a PVDF membrane. The membranes were blocked with 5% skimmed milk (prepared using Tris-buffered saline containing 0.05% Tween-20) before incubation with primary antibodies at 4 °C overnight. The membranes were then incubated with HRP-conjugated secondary antibodies at room temperature. The Alphaview SA system and software (version 3.4.0, ProteinSimple, USA) was used for quantitative analysis of the optical density of the bands.

[8] = tested on: HCC827 cells; assay: Cell growth inhibition assay (MTT); type: cell-based; settings: Homo sapiens, read-out: IC50 cell viability
Method: Human NSCLC cells NCI-H1975, HCC827, Calu-3 and A549were obtained from the Cell Culture Center of the Institute of Basic Medical Sciences, Chinese Academy of Medical Sciences. […] Calu-3 was maintained in Minimum Essential Medium (MEM) supplemented with 10% FBS (Gibco, USA), 5% 100 mM Sodium Pyruvate (Gibco, USA), and 5% Non-Essential Amino Acids Solution (NEAA; Gibco, USA). All cells were incubated at 37 °C with 5% CO2 in air.
According to the previous report[29], 5 × 10^3 cells/100 μL were seeded in culture medium in every well in a 96-well plate for 24 hours. […] After 72 h of treatment, MTT (Beyotime Biotechnology, China) was added at a final concentration of 5 mg/ml and incubated for 3 hours. Following that, DMSO was used to dissolve the formazan product and the Molecular Devices SpectraMax M5 microplate reader (Molecular Devices, USA) was used to measure absorbance at 570 nm and IC50 was calculated.

[9] = tested on: Calu-3 xenograft; assay: Nude mouse xenograft model; settings: for Body weight (g) Begin / IR (%) inhibition rate of tumor growth (tumor weight) / Body weight (g) End: Calu-3 xenograft; for IR (%) inhibition rate of tumor growth (tumor weight): 15 days
Method: as §4

[10] = tested on: NCI-H1975 cells; assay: Western blot assay; type: cell-based, Human; settings: 24 h; for EGFR signaling: Western blotting
Method: as §3

[11] = biological target: EGFR L858R (Homo sapiens, UniProt P00533, L858R); assay: In vitro kinase assay
Chain of EGFR L858R (P00533 25-1210 L858R): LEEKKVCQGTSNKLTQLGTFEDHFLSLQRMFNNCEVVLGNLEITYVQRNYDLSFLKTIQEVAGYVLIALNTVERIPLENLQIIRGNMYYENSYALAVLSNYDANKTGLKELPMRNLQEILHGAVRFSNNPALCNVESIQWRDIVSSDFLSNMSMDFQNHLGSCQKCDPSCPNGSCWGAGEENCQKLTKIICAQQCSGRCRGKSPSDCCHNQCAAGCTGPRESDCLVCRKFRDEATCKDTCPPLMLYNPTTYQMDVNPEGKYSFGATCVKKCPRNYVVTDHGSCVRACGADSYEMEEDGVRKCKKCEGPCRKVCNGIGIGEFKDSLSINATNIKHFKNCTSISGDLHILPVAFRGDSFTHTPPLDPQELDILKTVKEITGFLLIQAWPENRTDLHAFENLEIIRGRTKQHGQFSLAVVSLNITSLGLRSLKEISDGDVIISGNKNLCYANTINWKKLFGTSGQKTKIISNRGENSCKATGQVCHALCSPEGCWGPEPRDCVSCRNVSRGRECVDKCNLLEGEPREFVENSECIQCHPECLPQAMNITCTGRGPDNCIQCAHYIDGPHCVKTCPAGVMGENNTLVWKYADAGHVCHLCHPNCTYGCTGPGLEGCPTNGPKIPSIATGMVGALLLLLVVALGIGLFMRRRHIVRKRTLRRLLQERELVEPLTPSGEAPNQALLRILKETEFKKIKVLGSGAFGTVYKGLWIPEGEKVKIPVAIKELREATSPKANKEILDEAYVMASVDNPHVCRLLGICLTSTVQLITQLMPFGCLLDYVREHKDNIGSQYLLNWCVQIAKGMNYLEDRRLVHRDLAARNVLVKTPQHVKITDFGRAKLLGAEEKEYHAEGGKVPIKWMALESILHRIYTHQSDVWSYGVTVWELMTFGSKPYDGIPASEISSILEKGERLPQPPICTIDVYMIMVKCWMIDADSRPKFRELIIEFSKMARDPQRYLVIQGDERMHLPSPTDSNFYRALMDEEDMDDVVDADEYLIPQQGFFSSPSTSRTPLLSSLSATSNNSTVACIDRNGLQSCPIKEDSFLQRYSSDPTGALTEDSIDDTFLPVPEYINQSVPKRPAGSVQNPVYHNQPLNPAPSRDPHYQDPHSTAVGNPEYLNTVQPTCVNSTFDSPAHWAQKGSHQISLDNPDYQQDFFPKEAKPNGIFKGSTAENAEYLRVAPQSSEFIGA
Method: (§5) Various enzymes and biotin-labeled substrates were added to the test plates and incubated at room temperature for 15 minutes. Following that, ATP and the test compound was added, mixed, and incubated with the test plates. After completion of the reaction, the detection reagent is added to every well and incubated for 60 minutes before detection. Envision (PerkinElmer Inc.) was used to analyze the test plates and calculate the IC50 values. The IDBS XL fit module was used as the analysis module.

[12] = biological target: EGFR Wild Type (Homo sapiens, UniProt P00533); assay: In vitro kinase assay
Chain of EGFR Wild Type (P00533 25-1210): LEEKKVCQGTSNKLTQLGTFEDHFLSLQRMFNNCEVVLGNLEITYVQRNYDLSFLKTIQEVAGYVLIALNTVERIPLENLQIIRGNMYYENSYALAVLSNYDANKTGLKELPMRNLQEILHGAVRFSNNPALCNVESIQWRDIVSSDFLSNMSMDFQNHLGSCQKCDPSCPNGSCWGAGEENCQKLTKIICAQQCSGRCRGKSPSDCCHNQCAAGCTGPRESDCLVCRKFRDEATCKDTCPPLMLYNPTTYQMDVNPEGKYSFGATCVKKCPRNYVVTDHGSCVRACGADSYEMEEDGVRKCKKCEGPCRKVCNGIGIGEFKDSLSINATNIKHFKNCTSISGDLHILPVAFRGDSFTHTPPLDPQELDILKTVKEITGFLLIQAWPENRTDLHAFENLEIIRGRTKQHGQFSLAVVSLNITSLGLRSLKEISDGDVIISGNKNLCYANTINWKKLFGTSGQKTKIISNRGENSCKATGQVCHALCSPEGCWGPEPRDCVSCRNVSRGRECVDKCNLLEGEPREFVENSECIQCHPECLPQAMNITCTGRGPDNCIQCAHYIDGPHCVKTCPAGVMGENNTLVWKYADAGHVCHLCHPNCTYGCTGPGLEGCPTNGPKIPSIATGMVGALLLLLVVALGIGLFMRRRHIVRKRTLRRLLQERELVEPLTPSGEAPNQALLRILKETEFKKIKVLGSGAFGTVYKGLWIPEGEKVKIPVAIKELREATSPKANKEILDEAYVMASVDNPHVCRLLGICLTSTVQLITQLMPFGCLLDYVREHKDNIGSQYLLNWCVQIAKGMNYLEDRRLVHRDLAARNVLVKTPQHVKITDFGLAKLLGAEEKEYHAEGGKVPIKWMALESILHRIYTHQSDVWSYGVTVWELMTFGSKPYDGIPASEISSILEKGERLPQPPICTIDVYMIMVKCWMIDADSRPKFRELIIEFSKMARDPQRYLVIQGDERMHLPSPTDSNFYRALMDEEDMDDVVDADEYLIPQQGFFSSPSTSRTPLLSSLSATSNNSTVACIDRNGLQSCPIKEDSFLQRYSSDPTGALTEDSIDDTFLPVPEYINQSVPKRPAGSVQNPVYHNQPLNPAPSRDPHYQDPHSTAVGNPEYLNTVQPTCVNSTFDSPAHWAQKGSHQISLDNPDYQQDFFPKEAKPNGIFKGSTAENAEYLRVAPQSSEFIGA
Method: as §5

[13] = biological target: T1, Her4 Wild Type (Homo sapiens, UniProt Q15303); assay: In vitro kinase assay; type: biochemical; settings: WT; n = 2
T1 construct: purchased Invitrogen (Shanghai) Co., Ltd
T1 sequence (Q15303 26-1308): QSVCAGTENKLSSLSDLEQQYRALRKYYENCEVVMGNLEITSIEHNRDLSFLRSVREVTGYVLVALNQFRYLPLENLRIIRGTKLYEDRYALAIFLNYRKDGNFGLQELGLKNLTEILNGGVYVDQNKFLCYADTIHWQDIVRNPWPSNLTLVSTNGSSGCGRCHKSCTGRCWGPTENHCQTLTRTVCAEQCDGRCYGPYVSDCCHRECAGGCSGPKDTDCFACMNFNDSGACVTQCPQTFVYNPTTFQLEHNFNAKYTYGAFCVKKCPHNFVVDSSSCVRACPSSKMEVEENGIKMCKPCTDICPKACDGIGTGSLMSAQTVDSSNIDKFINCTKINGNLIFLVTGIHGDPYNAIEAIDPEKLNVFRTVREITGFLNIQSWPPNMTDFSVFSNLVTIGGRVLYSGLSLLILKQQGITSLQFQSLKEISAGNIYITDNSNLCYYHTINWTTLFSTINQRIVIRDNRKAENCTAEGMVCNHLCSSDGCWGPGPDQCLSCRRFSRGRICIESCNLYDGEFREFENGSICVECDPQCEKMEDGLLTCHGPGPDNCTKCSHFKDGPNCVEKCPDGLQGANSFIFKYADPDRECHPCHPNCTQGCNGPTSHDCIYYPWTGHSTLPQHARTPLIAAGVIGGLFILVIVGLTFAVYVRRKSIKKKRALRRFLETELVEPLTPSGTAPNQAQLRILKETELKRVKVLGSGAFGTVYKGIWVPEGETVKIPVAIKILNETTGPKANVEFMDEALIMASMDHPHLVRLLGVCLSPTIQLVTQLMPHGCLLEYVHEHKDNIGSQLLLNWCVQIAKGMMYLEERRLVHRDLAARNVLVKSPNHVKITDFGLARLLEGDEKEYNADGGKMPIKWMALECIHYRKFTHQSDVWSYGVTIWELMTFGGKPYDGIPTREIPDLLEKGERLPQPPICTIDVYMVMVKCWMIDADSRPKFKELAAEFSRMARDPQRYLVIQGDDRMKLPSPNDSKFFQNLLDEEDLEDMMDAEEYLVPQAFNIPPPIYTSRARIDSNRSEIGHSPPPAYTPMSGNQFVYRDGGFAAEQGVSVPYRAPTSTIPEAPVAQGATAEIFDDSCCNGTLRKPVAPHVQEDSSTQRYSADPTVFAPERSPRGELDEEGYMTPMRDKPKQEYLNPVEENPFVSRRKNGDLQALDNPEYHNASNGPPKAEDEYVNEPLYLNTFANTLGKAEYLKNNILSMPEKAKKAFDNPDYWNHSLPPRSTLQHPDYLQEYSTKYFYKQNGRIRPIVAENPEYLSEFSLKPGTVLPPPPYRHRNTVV

[14] = biological target: EGFR L858R/T790M (Homo sapiens, UniProt P00533, L858R/T790M); assay: In vitro kinase assay
Method: as §5

[15] = biological target: EGFR T790M (Homo sapiens, UniProt P00533, T790M); assay: In vitro kinase assay
Method: as §5

[16] = biological target: T2, Her2 Wild Type (Homo sapiens, UniProt P04626); assay: In vitro kinase assay; type: biochemical; settings: WT; n = 2
T2 construct: purchased Invitrogen (Shanghai) Co., Ltd
T2 sequence (P04626 23-1255): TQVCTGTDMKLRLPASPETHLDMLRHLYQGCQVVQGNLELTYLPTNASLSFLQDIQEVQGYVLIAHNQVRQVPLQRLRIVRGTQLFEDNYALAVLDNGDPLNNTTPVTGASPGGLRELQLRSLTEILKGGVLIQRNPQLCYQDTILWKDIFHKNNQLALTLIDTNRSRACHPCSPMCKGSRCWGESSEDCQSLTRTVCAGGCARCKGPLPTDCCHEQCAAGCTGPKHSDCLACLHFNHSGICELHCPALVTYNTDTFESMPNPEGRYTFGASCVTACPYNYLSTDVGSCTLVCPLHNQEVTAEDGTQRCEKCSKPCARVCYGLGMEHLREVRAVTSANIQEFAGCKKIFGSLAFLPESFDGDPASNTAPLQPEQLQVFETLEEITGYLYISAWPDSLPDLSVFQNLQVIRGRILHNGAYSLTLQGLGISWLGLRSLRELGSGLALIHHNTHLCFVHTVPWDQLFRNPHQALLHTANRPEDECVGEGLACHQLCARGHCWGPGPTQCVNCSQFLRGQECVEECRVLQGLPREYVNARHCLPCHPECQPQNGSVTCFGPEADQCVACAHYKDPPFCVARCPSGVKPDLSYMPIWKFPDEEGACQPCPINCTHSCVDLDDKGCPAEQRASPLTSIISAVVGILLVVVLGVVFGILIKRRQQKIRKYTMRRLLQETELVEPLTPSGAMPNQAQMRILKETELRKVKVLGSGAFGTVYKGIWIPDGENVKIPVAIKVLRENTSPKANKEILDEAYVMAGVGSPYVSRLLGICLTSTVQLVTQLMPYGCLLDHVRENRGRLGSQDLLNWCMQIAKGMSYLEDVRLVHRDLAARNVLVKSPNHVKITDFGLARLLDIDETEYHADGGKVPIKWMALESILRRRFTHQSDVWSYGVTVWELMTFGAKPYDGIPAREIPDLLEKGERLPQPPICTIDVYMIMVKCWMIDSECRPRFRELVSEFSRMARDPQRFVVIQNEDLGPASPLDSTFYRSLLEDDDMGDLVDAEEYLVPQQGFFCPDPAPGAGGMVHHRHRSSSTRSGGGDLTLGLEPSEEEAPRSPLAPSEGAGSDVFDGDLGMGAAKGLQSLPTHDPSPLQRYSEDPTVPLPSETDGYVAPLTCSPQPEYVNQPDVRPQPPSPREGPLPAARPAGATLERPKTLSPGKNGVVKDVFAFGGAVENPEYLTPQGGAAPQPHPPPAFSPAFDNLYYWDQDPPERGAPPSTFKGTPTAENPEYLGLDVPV

[17] = tested on: EGFR phosphorylation in A431 cells; assay: Western blot assay; type: cell-based; settings: A431 cells with EGFR WT, 24 h, Western blotting
Method: as §3, with “After centrifugation at 12000 g for 15 minutes, the supernatant was collected. The BCA” for “The BCA”

[18] = tested on: HER2 phosphorylation in Calu-3 cells; assay: Western blot assay; type: cell-based, Human; settings: 24 h, Western blotting
Method: as §3, with “After centrifugation at 12000 g for 15 minutes, the supernatant was collected. The BCA” for “The BCA”

[19] = biological target: EGFR d746–750/T790M (Homo sapiens, UniProt P00533, DEL746-750/T790M); assay: In vitro kinase assay
Method: as §5

[20] = HCC827 xenograft, 2.5 mg/kg/day group
[21] = HCC827 xenograft, 2.5 mg/kg/day oral
[22] = Calu-3, HER-2 (WT, amplified), MTT, 72 h, mean ± s.d. (n = 3)
[23] = NCI-H1975, EGFR (L858R/T790M), MTT, 72 h, mean ± s.d. (n = 3)
[24] = NCI-H1781, HER-2 (G776V, Cins), MTT, 72 h, mean ± s.d. (n = 3)
[25] = HCC827 xenograft, 1 mg/kg/day group
[26] = HCC827 xenograft, 1 mg/kg/day oral, 15 days
[27] = HCC827 xenograft, 1 mg/kg/day oral
[28] = HCC827, EGFR (Del E746_A750), MTT, 72 h, mean ± s.d. (n = 3)
[29] = A549, K-ras mutation (G12S), MTT, 72 h, mean ± s.d. (n = 3)

## C#Cc1cccc(Nc2ncnc3cc(OCCOC)c(OCCOC)cc23)c1 [Erlotinib]
[1]; Calu-3, 72 h
  IC50: > 1000 nM
[2]; NCI-H1975, 72 h
  IC50: > 1000 nM
[3]; NCI-H1781, 72 h
  IC50: > 1000 nM
[4]
  number of p-EGFR and Ki67 positive cells in tumor tissues: strongly decreased
[4]; HCC827 xenograft models
  decrease of body weight of animals: more than 20%
[4]; HCC827 xenograft, 100 mg/kg/day group
  Body weight (g) Begin: 17.65 ± 0.95 g
[4]; HCC827 xenograft, 100 mg/kg/day oral
  Body weight (g) End: 13.82 ± 0.75 g
[5]; NCI-H1975 xenograft models, vs. control group
  tumor growth (in words): did not inhibit tumor growth
[5]; 100 mg/kg/day group
  Body weight (g) Begin: 16.63 ± 1.02 g
[5]; 100 mg/kg/day oral
  IR (%) inhibition rate of tumor growth (tumor weight): 29.78%
  Body weight (g) End: 14.54 ± 1.10 g
[6]; A549, 72 h
  IC50: > 1000 nM
[7]
  Phosphorylation of EGFR and its downstream AKT and ERK: inhibited

## C=CC(=O)Nc1cc(Nc2nccc(-c3cn(C)c4ccccc34)n2)c(OC)cc1N(C)CCN(C)C [Osimertinib]
[1]; Calu-3, 72 h
  IC50: […]
[2]; NCI-H1975, 72 h
  IC50: […]
[3]; NCI-H1781, 72 h
  IC50: 842 ± 34 nM
[4]
  number of p-EGFR and Ki67 positive cells in tumor tissues: strongly decreased
[4]; [20]
  Body weight (g) Begin: 17.57 ± 1.03 g
[4]; [21]
  Body weight (g) End: 19.13 ± 0.78 g
[4]; mouse, in vivo, po, 2.5 mg/kg/day
  IR (%) inhibition rate of tumor growth (tumor weight): 91.19^*** %
[8]; HCC827, 72 h
  IC50: 1.09 ± 0.22 nM
[5]
  number of p-EGFR and Ki67 positive cells in tumor tissues: strongly decreased
[5]; 10 mg/kg/day group
  Body weight (g) Begin: 16.55 ± 0.82 g
[5]; 10 mg/kg/day oral
  IR (%) inhibition rate of tumor growth (tumor weight): 98.60^*** %
  Body weight (g) End: 16.23 ± 1.31 g
[6]; A549, 72 h
  IC50: > 1000 nM
[9]; Calu-3 xenograft models, vs. control group
  tumor growth (in words): did not show any significant inhibitory activity
[9]; 5 mg/kg/day group
  Body weight (g) Begin: 17.42 ± 0.82 g
[9]; 5 mg/kg/day oral
  IR (%) inhibition rate of tumor growth (tumor weight): 20.21%
  Body weight (g) End: 18.24 ± 0.78 g
[7]
  Phosphorylation of EGFR and its downstream AKT and ERK: inhibited
[10]
  EGFR signaling: inhibited

## C=CC(=O)N1CCC(Oc2cc3c(Nc4ccc(Cl)c(Cl)c4F)ncnc3cc2O)CC1 [PCC0208027]
[11]
  IC50: 0.0047 nM
[12]
  IC50: 0.077 nM
[1]; [22]
  IC50: 6.07 ± 0.29 nM
[2]; [23]
  IC50: 11.1 ± 4.39 nM
[3]; [24]
  IC50: 5.97 ± 1.37 nM
[4]
  number of p-EGFR and Ki67 positive cells in tumor tissues: strongly decreased
[4]; [25]
  Body weight (g) Begin: 17.67 ± 0.60 g
[4]; [26]
  IR (%) inhibition rate of tumor growth (tumor weight): 81.24^*** %
[4]; [27]
  Body weight (g) End: 18.22 ± 0.91 g
[4]; [20]
  Body weight (g) Begin: 17.63 ± 0.68 g
[4]; HCC827 xenograft, 2.5 mg/kg/day oral, 15 days, 2.5 mg/kg/day
  IR (%) inhibition rate of tumor growth (tumor weight): 90.53%
[4]; HCC827 xenograft, 2.5 mg/kg/day oral, 15 days, listed as PCC, 2.5 mg/kg/day
  IR (%) inhibition rate of tumor growth (tumor weight): 90.53^*** %
[4]; [21]
  Body weight (g) End: 17.92 ± 0.77 g
[8]; [28]
  IC50: 4.22 ± 0.51 nM
[13]
  IC50: 0.11 nM
[5]
  number of p-EGFR and Ki67 positive cells in tumor tissues: strongly decreased
[5]; NCI-H1975 xenograft models
  decrease of body weight of animals: less than 10%
[5]; 5 mg/kg/day group
  Body weight (g) Begin: 16.68 ± 0.57 g
[5]; 5 mg/kg/day oral
  IR (%) inhibition rate of tumor growth (tumor weight): 84.61^*** %
  Body weight (g) End: 15.70 ± 0.58 g
[5]; 10 mg/kg/day group
  Body weight (g) Begin: 16.40 ± 0.58 g
[5]; 10 mg/kg/day oral
  IR (%) inhibition rate of tumor growth (tumor weight): 97.98^*** %
  Body weight (g) End: 15.07 ± 0.65 g
[6]; A549 cells with KRAS mutation
  anti-tumor activity (in words): no anti-tumor activity
[6]; [29]
  IC50: > 1000 nM
[9]; Calu-3 xenograft model, IHC, vs control group
  number of p-HER2 and Ki67 positive cells in tumor tissues: significantly reduce
[9]; 2.5 mg/kg/day group
  Body weight (g) Begin: 17.30 ± 0.37 g
[9]; 2.5 mg/kg/day oral
  IR (%) inhibition rate of tumor growth (tumor weight): 50.02^** %
  Body weight (g) End: 16.94 ± 0.44 g
[9]; 5 mg/kg/day group
  Body weight (g) Begin: 17.62 ± 0.77 g
[9]; 5 mg/kg/day oral
  IR (%) inhibition rate of tumor growth (tumor weight): 80.07^*** %
  Body weight (g) End: 16.56 ± 0.59 g
[14]
  IC50: 0.94 nM
[15]
  IC50: 0.61 nM
[7]
  Phosphorylation of EGFR and its downstream AKT and ERK: inhibited
[7]; western blot
  expression of CDK2, CDK4 and E2F: significantly decreased
[10]
  EGFR signaling: inhibited
[10]; western blot
  expression of CDK2, CDK4 and E2F: significantly decreased
[16]
  IC50: 0.025 nM
[17]
  phosphorylation of EGFR: potential inhibitory activity
[18]
  Phosphorylation level of HER2: inhibited obviously
[19]
  IC50: 0.82 nM

## C=CC(=O)N1CCC(Oc2cc3c(Nc4ccc(Cl)c(Cl)c4F)ncnc3cc2OC)CC1 [Poziotinib]
[1]; [22]
  IC50: 2.47 ± 0.52 nM
[2]; [23]
  IC50: 8.78 ± 3.03 nM
[3]; [24]
  IC50: 6.17 ± 0.42 nM
[4]; [25]
  Body weight (g) Begin: 17.55 ± 0.96 g
[4]; [26]
  IR (%) inhibition rate of tumor growth (tumor weight): 93.25^*** %
[4]; [27]
  Body weight (g) End: 17.21 ± 0.90 g
[8]; [28]
  IC50: 1.72 ± 0.32 nM
[13]
  IC50: 0.18 nM
[5]; 2.5 mg/kg/day group
  Body weight (g) Begin: 16.44 ± 0.69 g
[5]; 2.5 mg/kg/day oral
  IR (%) inhibition rate of tumor growth (tumor weight): 98.18^*** %
  Body weight (g) End: 14.62 ± 0.67 g
[6]; [29]
  IC50: > 1000 nM
[9]; 2.5 mg/kg/day group
  Body weight (g) Begin: 17.72 ± 0.73 g
[9]; 2.5 mg/kg/day oral
  IR (%) inhibition rate of tumor growth (tumor weight): 77.16^*** %
  Body weight (g) End: 16.36 ± 0.92 g
[16]
  IC50: 0.07 nM

From publication PMC6451005, “PCC0208027, a novel tyrosine kinase inhibitor, inhibits tumor growth of NSCLC by targeting EGFR and HER2 aberrations” (Scientific Reports, 2019)
